Experimental data from paper PMC5915149, “The role of oxidative stress in activity of anticancer thiosemicarbazones” (Oncotarget, 2018).
Read-outs that look alike come from different tables or passages of the source.

Legend:
MCF-7 = assay: MTS antiproliferative assay, MCF-7 (with or without added metal ions); type: cell-based, human
Experimental: (§1) The cells were seeded in 96-well plates (Nunc) at a density of 3,500 cells/well (HCT116 and MCF-7) and 3,000 cells/well (NHDF) and incubated at 37° C for 24 h. The assay was performed following a 96 h incubation with varying concentrations of the compounds that were being tested. Then, 20 µL of CellTiter 96® AQueous One Solution-MTS (Promega) was added to each well (with 100 µL DMEM without phenol red) and incubated for 1 h at 37° C. The optical densities of the samples were analyzed at 490 nm using a multi-plate reader (Synergy 4, Bio Tek). Results were expressed as a percentage of the control and calculated as the inhibitory concentration (IC50) values (using GraphPad Prism 5). The IC50 parameter was defined as the compound concentration that was necessary to reduce the proliferation of cells to 50% of the untreated control. Each individual compound was tested in triplicate in a single experiment with each experiment being repeated three or four times.
(§2) The HCT116 and MCF-7 cells were seeded in 96-well plates (Nunc) at a density of 3,500 cells/well and incubated at 37° C for 24 h. The MTS assay was performed following a 96 h incubation with varying concentrations of the tested compounds. Additionally, a 20 µM solution of CuSO4, FeSO4 or FeCl3 was added into wells with the tested compounds. The results were expressed as a percentage of the control and calculated as the inhibitory concentration (IC50) values using GraphPad Prism 5. Each individual compound was tested in triplicate in a single experiment with each experiment being repeated three times.

HCT116 [1] = assay: MTS antiproliferative assay, HCT116 (with or without added metal ions); type: cell-based, human; conditions: for IC50: 96 h
Experimental: as §1, §2

HCT116 [2] = system: HCT116; parameters: method as in PMID 25329549; conditions: 96 h incubation, MTS; cited from earlier work
cdc2 = assay: Western blot of cdc2; type: cell-based, human; conditions: HCT116, 1 µM
Experimental: (§3) The HCT116 cells were seeded in 3 cm Petri dishes (Nunc) at a density of 0.5·10^6 cells/well and incubated overnight. The next day, solutions of TSC (1 μM) and DOX (5 μM) were added and the cells incubated for 24 or 48 h. Cells were harvested by trypsinization and washed with cold PBS. Next, the cells were centrifuged and suspended in an RIPA buffer (Thermo Scientific) containing Halt Protease Inhibitor Cocktail (Thermo Scientific), Halt Phosphatase Inhibitor Cocktail (Thermo Scientific) along with 0.5 M EDTA and lysed for 20 min on ice. Then, the lysates were sonicated, centrifuged at 10,000 rpm for 10 min at 4° C and the supernatants were collected for further analysis. The protein concentration was determined using a Micro BCA™ Protein Assay Kit (Thermo Scientific) according to the manufacturer’s instructions. Equal amounts of the proteins (20 μg) were electrophoresed on SDS-Page gels and transferred onto a nitrocellulose membranes. The membranes were blocked in 5% non-fat milk prepared in PBS containing 0.1% Tween-20 (TPBS) for 1 h. After blocking, the membranes were incubated with specific primary antibodies: cdc2 (#POH1, Cell Signaling), p21^Waf1/Cip1 (#12D1, Cell Signaling), p53 (#1C12, Cell Signaling) and β-Actin (#8H10D10, Cell Signaling) overnight at 4° C, then washed and incubated with horseradish peroxidase (HRP)-conjugated secondary antibodies for 1h at room temperature. All of antibodies were diluted 1:1000 in 5% milk in TPBS. Finally, the membranes were washed and incubated with a SuperSignal™ West Pico Chemiluminescent Substrate (Thermo Scientific). The chemiluminescence signals were captured using a ChemiDoc™ XRS+ System (BioRad). The experiments were performed at least three times. Densitometric analysis was performed using ImageJ 1.41 software (Wayne Rasband, National Institutes of Health, USA).

calf-thymus DNA (CT-DNA) = assay: Intercalation, absorption spectra with CT-DNA; type: binding; conditions: for % hypochromism / Changes in absorbance / Δε: bound to CT-DNA; for blue/red shift: wavelengths of maximum absorption, compound alone vs DNA-bound
Experimental: For the DNA binding studies, Calf-thymus DNA (CT-DNA) was purchased from Sigma Aldrich. The lyophilized CT-DNA was dissolved in 10 mM Tris-HCl, pH 7.9, mixed gently and left overnight at 4° C. The purity of the CT-DNA solution was determined by measuring the ratio of UV absorbance at 260 and 280 nm. […] Then, the concentration of CT-DNA was determined from the absorbance at 260 nm using an extinction coefficient of 6600 M^–1cm^–1. The tested TSC and DOX were dissolved in DMSO to a concentration of 8.35 mM, which was then used as the stock solution for preparing the various concentrations (25, 12.5, 6 and 3 µM) in 1 mL in 10 mM of Tris-HCl (pH 7.9). Afterwards, 18 µM CT-DNA was added to the prepared solutions, which were incubated for 1.5 h at 37° C with occasional vortexing. The absorption spectra were measured using a Hitachi U-2900 spectrophotometer in range of 200–500 nm. All absorption spectra were imported and compared in OriginPro 8.0.

NHDF = system: NHDF; parameters: method as in PMID 25329549; conditions: 96 h incubation, MTS; cited from earlier work
p21 = assay: Western blot of p21; type: cell-based, human; conditions: HCT116, 1 µM
Experimental: as §3

HCT116 cells = assay: Cell cycle assay (Muse Cell-Cycle Kit); type: cell-based, human; conditions: HCT116, TSC 1 µM, 48 h
Experimental: The HCT116 cells were seeded in 3 cm Petri dishes (Nunc) at a density of 0.25·10^6 cells/well and incubated at 37° C for 24 h. […] After a 48 h treatment, assays were performed using a Muse Cell-Cycle Kit (Millipore) according to the manufacturer’s instructions. Briefly, cells were collected, washed with cold PBS and centrifuged at 300 g. Then, the cells were fixed in ice cold 70% ethanol and stored at –20° C overnight. Afterwards, the cells were centrifuged and resuspended in 200 μL of Muse™ Cell Cycle Reagent and incubated for 30 min at room temperature in the dark. After staining, the cells were processed for cell cycle analysis using a Muse Cell Analyzer (Millipore). The experiments were performed at least three times.

CAT = assay: mRNA expression (Real-Time PCR) of CAT; type: cell-based, human; conditions: HCT116, TSC 1 µM, after the first 12 h
Experimental: (§4) The HCT116 cells were seeded in 3 cm Petri dishes (Nunc) at a density of 0.5·10^6 cells/well and incubated overnight. Next, the medium was removed and solutions of TSC (1 μM) and DOX (5 μM) were added. After 12 or 24 h, total RNA was isolated from the cells using TRIzol Reagent (Ambion) according to the manufacturer’s instructions. cDNA synthesis was performed with 5 μg of total RNA using a GoScript™ Reverse Transcriptase kit (Promega) and Oligo(dT)23 Primers (Sigma). The Real-Time PCR was performed with a CTX96 Touch™ Real-Time PCR Detection System (Biorad) in a 20 μL reaction volume. The reaction consisted of PowerUp™ SYBR® Green Master Mix (Applied Biosystems), a primer pair mix (0.5 μM each) and 1 μL of cDNA. All primer pair sequences were purchased from Sigma-Aldrich and are listed in Supplementary Table 2. The experiment was performed under the following conditions: initial denaturation at 95° C for 120 sec; followed by 40 denaturation cycles at 95° C, 15 sec; annealing (primer-specific temperature for 30 sec) and extension at 72° C for 60 sec. Data was analyzed based on a comparison of the expression of the target genes to a reference gene – β-actin, using the 2^–ΔΔCT method. The experiments were performed at least three times.

Ndrg1 = assay: mRNA expression (Real-Time PCR) of Ndrg1; type: cell-based, human; conditions: HCT116, TSC 1 µM, 24 h
Experimental: as §4

MnSOD = assay: mRNA expression (Real-Time PCR) of MnSOD; type: cell-based, human; conditions: HCT116, TSC 1 µM, 12 or 24 h
Experimental: as §4

[3] = 96 h, 20 µM CuSO4 added, read-out: Activity - IC50 MCF-7+ Cu^2+
[4] = 96 h, 20 µM FeCl3 added, read-out: Activity - IC50 MCF-7+ Fe^3+
[5] = 96 h incubation, MTS, read-out: Activity - IC50 MCF-7
[6] = 20 µM CuSO4 added, read-out: Activity - IC50 HCT116+ Cu^2+
[7] = 20 µM FeCl3 added, read-out: Activity - IC50 HCT116+ Fe^3+

SMILES	IC50 (HCT116 [2])	expression of cdc2 protein (densitometric analysis) (cdc2)	% hypochromism (calf-thymus DNA (CT-DNA))	Changes in absorbance (calf-thymus DNA (CT-DNA))	Δε (calf-thymus DNA (CT-DNA))	blue/red shift (calf-thymus DNA (CT-DNA))	IC50 (NHDF)	cells in S phase (HCT116 cells)	IC50 (MCF-7; [3])	IC50 (MCF-7; [4])	IC50 (MCF-7; [5])	IC50 (HCT116 [1]; [6])	IC50 (HCT116 [1]; [7])	mRNA expression of MnSOD (MnSOD)	also measured
CN(C)C(=S)NN=C(c1ccccn1)c1ccccn1 [Dp44mT, di-2-pyridylketone 4,4-dimethyl-3-thiosemicarbazone, reference compound]	1.4 ± 0.13 nM	lowest values	8.2%	hypochromism	1673.3 M⁻¹ cm⁻¹	2 nm	15.4 µM	41%	–	–	–	–	–	–	IC50 (MCF-7; Homo sapiens, MCF7, 96 h, 20 µM CuSO4 added, read-out: Activity - IC50 MCF-7+ Cu^2+): 0.13 ± 0.04 nM; IC50 (MCF-7; Homo sapiens, MCF7, 96 h, 20 µM FeCl3 added, read-out: Activity - IC50 MCF-7+ Fe^3+): 0.96 ± 0.32 nM; IC50 (MCF-7; Homo sapiens, MCF7, 96 h incubation, MTS, read-out: Activity - IC50 MCF-7): 0.38 ± 0.15 nM; Selectivity index, calculated for MCF-7 (MCF-7; versus NHDF): 40473.7; IC50 (HCT116 [1]; Homo sapiens, HCT-116, 20 µM CuSO4 added, read-out: Activity - IC50 HCT116+ Cu^2+): 0.31 ± 0.06 nM; IC50 (HCT116 [1]; Homo sapiens, HCT-116, 20 µM FeCl3 added, read-out: Activity - IC50 HCT116+ Fe^3+): 1.77 ± 0.36 nM; Selectivity index, calculated for HCT116 (HCT116 [1]; versus NHDF): 10985.7; ability to intercalate DNA (calf-thymus DNA (CT-DNA); CT-DNA, absorption spectra): very weak; expression of p21 protein (densitometric analysis) (p21): marked up-regulation
Oc1cccc2ccc(C=NNC(=S)N3CCN(c4cnccn4)CC3)nc12 [Compound 2b]	50.5 ± 28.1 nM	increased the expression	9.4%	hypochromism	1888.9 M⁻¹ cm⁻¹	5 nm	12.1 µM	33–35%	5.49 ± 1.19 nM	35.8 ± 5.82 nM	32.2 ± 6.85 nM	4.17 ± 1.12 nM	78.2 ± 14 nM	–	improvement in cytotoxicity after interacting with Cu^2+ (HCT116 [1]; HCT116 cells, 20 µM CuSO4): more than a ten-fold increase; mRNA expression of CAT (CAT): higher; mRNA expression of Ndrg1 (Ndrg1): strongest
S=C(NN=Cc1ccc2ccccc2n1)N1CCN(c2cnccn2)CC1 [Compound 1a]	87.7 ± 43.9 nM	–	22.0%	hypochromism	3175.6 M⁻¹ cm⁻¹	1 nm	9.44 µM	–	44.9 ± 3.77 nM	273 ± 35.6 nM	219 ± 15.1 nM	59.6 ± 6.45 nM	96.9 ± 16.9 nM	after the initial decline (for 12 h) there is a small increase	–
Oc1cccc2ccc(C=NNC(=S)N3CCOCC3)nc12 [Compound 2a]	3.84 ± 1.46 nM	–	15.7%	hypochromism	1935.6 M⁻¹ cm⁻¹	10 nm	10.6 µM	33–35%	2.39 ± 0.42 nM	8.83 ± 1.29 nM	10.9 ± 2.85 nM	1.39 ± 0.44 nM	7.57 ± 1.19 nM	slight increase	–
